Experimental data from patent publication US20260138990A1, “TRICYCLIC FUSED IMIDAZOLE COMPOUNDS AS CD38 MODULATORS AND USES THEREOF” (AEOVIAN PHARMACEUTICALS, INC., priority 2023, published 2026).

Assays:
human CD38 = target: T1, human CD38 (Homo sapiens, UniProt P28907); test: NAD+ cyclase activity assay with human recombinant CD38 protein (ε-NAD fluorescence); format: biochemical; conditions: 1.9 nM human CD38, substrate ε-NAD, 30 min preincubation, fluorescence 300/410 nm
T1 construct: purchased Bio-Techne GmbH AVI2404
T1 sequence (P28907 1-300): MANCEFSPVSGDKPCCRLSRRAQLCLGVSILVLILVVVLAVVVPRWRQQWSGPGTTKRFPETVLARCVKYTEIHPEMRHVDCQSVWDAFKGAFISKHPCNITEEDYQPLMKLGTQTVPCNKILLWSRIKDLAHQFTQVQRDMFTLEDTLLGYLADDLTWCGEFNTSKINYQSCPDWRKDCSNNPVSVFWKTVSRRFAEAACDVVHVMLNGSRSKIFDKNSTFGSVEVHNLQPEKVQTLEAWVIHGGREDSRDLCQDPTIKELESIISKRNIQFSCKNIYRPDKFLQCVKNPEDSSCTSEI
Outline: (§1)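 Twelve-point threefold compound dilutions were given 30 min at room temperature with 0.6 nM mouse or 1.9 nM human CD38 before […] ε-NAD was added (pH 7.5 HEPES/sucrose/Tween buffer). The rate came from the linear-phase slope of ex 300/em 410 nm fluorescence against vehicle and no-CD38 controls.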

mouse CD38 = target: T2, mouse CD38 (Mus musculus, UniProt P56528); test: NAD+ cyclase activity assay with mouse recombinant CD38 protein (ε-NAD fluorescence); format: biochemical; conditions: 0.6 nM mouse CD38, substrate ε-NAD, 30 min preincubation, fluorescence 300/410 nm
T2 construct: purchased Bio-Techne GmbH 4947-AC
T2 sequence (P56528 1-304): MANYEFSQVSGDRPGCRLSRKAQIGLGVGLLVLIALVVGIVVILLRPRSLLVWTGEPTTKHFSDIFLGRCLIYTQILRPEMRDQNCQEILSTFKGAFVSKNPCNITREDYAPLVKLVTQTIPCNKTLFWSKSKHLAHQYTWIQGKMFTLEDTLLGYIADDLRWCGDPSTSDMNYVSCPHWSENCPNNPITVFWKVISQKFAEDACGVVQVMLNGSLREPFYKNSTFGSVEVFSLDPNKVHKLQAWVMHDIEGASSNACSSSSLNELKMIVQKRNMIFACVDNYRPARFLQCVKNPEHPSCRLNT
Outline: as §1

Compound | IC50 (human CD38) [nM] | IC50 (mouse CD38) [nM]
O=C(N[C@H]1CC[C@H](OCC(F)(F)F)CC1)c1cc(Cl)c2c(c1)-c1cncn1CCO2 [Compound 157A, 8-Chloro-N-((1r,4r)-4-(2,2,2-trifluoroethoxy)cyclohexyl)-5,6-dihydrobenzo[f]imidazo[1,5-d][1,4]oxazepine-10-carboxamide] | < 30 | < 1
O=C(N[C@H]1CC[C@@H](OCC(F)(F)F)CC1)c1cc(Cl)c2c(c1)-c1cncn1CCO2 [Compound 158A, 8-Chloro-N-((1s,4s)-4-(2,2,2-trifluoroethoxy)cyclohexyl)-5,6-dihydrobenzo[f]imidazo[1,5-d][1,4]oxazepine-10-carboxamide] | 30 to 100 | 1 to 10
O=C(NC1CC2(CCC2)C1)c1cc(F)c2c(c1)-c1cncn1CCO2 [Compound 159A, 8-Fluoro-N-(spiro[3.3]heptan-2-yl)-5,6-dihydrobenzo[f]imidazo[1,5-d][1,4]oxazepine-10-carboxamide] | < 30 | < 1
O=C(NC1CC2(COC2)C1)c1cc(F)c2c(c1)-c1cncn1CCO2 [Compound 160A, 8-Fluoro-N-(2-oxaspiro[3.3]heptan-6-yl)-5,6-dihydrobenzo[f]imidazo[1,5-d][1,4]oxazepine-10-carboxamide] | 30 to 100 | 1 to 10
O=C(NC1CCCC(C(F)(F)F)C1)c1cc(F)c2c(c1)-c1cncn1CCO2 (centres unmarked) [Compound 161A, 8-Fluoro-N-(3-(trifluoromethyl)cyclohexyl)-5,6-dihydrobenzo[f]imidazo[1,5-d][1,4]oxazepine-10-carboxamide] | < 30 | 1 to 10
CC1(NC(=O)c2cc(F)c3c(c2)-c2cncn2CCO3)CCCCC1 [Compound 162A, 8-Fluoro-N-(1-methylcyclohexyl)-5,6-dihydrobenzo[f]imidazo[1,5-d][1,4]oxazepine-10-carboxamide] | 30 to 100 | 10 to 100
O=C(N[C@H]1CC[C@H](OC2CC(F)(F)C2)CC1)c1cc(F)c2c(c1)-c1cncn1CCO2 [Compound 166A, N-((1r,4r)-4-(3,3-Difluorocyclobutoxy)cyclohexyl)-8-fluoro-5,6-dihydrobenzo[f]imidazo[1,5-d][1,4]oxazepine-10-carboxamide] | < 30 | 1 to 10
O=C(N[C@H]1CC[C@@H](OC2CC(F)(F)C2)CC1)c1cc(F)c2c(c1)-c1cncn1CCO2 [Compound 167A, N-((1s,4s)-4-(3,3-Difluorocyclobutoxy)cyclohexyl)-8-fluoro-5,6-dihydrobenzo[f]imidazo[1,5-d][1,4]oxazepine-10-carboxamide] | 100 to 1000 | 10 to 100
O=C(N[C@H]1CC[C@H](OC2CC(F)(F)C2)CC1)c1cc(Cl)c2c(c1)-c1cncn1CCO2 [Compound 172A, N-((1r,4r)-4-(3,3-difluorocyclobutoxy)cyclohexyl)-8-chloro-5,6-dihydrobenzo[f]imidazo[1,5-d][1,4]oxazepine-10-carboxamide] | < 30 | 1 to 10
O=C(N[C@H]1CC[C@@H](OC2CC(F)(F)C2)CC1)c1cc(Cl)c2c(c1)-c1cncn1CCO2 [Compound 173A, N-((1s,4s)-4-(3,3-difluorocyclobutoxy)cyclohexyl)-8-chloro-5,6-dihydrobenzo[f]imidazo[1,5-d][1,4]269xazepane-10-carboxamide] | 100 to 1000 | 10 to 100
N-((1r,4r)-4-((Tetrahydrofuran-2-yl)methoxy)cyclohexyl)-5,6-dihydrobenzo[f]imidazo[1,5-d][1,4]oxazepine-10-carboxamide [Compound 76A] | < 30 | 1 to 10
N-((1s,4s)-4-((Tetrahydrofuran-2-yl)methoxy)cyclohexyl)-5,6-dihydrobenzo[f]imidazo[1,5-d][1,4]oxazepine-10-carboxamide [Compound 75A] | > 1000 | > 100

Now from value to compound:

IC50 (human CD38) [nM] | IC50 (mouse CD38) [nM] | Compound
< 30 | 1 to 10 | CC1(NC(=O)c2cc(Cl)c3c(c2)-c2cncn2CCO3)CCCCC1 [Compound 163A, 8-Chloro-N-(1-methylcyclohexyl)-5,6-dihydrobenzo[f]imidazo[1,5-d][1,4]oxazepine-10-carboxamide]
< 30 | 1 to 10 | O=C(NC1CCC(CC(F)(F)F)CC1)c1cc(F)c2c(c1)-c1cncn1CCO2 (centres unmarked) [Compound 164A, 8-Fluoro-N-(4-(2,2,2-trifluoroethyl)cyclohexyl)-5,6-dihydrobenzo[f]imidazo[1,5-d][1,4]oxazepine-10-carboxamide]
< 30 | 1 to 10 | O=C(NC1CCC(CC(F)(F)F)CC1)c1cc(Cl)c2c(c1)-c1cncn1CCO2 (centres unmarked) [Compound 165A, 8-Chloro-N-(4-(2,2,2-trifluoroethyl)cyclohexyl)-5,6-dihydrobenzo[f]imidazo[1,5-d][1,4]oxazepine-10-carboxamide]
100 to 1000 | > 100 | CC(C)(CO[C@H]1CC[C@@H](NC(=O)c2cc(F)c3c(c2)-c2cncn2CCO3)CC1)C(F)(F)F [Compound 168A, 8-Fluoro-N-((1s,4s)-4-(3,3,3-trifluoro-2,2-dimethylpropoxy)cyclohexyl)-5,6-dihydrobenzo[f]imidazo[1,5-d][1,4]oxazepine-10-carboxamide]
30 to 100 | 10 to 100 | CC1(NC(=O)c2cc(F)c3c(c2)-c2cncn2CCO3)CCS(=O)(=O)C1 (centres unmarked) [Compound 169A, 8-Fluoro-N-(3-methyl-1,1-dioxidotetrahydrothiophen-3-yl)-5,6-dihydrobenzo[f]imidazo[1,5-d][1,4]oxazepine-10-carboxamide]
30 to 100 | 1 to 10 | CC(C)(CO[C@H]1CC[C@H](NC(=O)c2cc(Cl)c3c(c2)-c2cncn2CCO3)CC1)C(F)(F)F [Compound 170A, 8-Chloro-N-((1r,4r)-4-(3,3,3-trifluoro-2,2-dimethylpropoxy)cyclohexyl)-5,6-dihydrobenzo[f]imidazo[1,5-d][1,4]oxazepine-10-carboxamide]
> 1000 | > 100 | CC(C)(CO[C@H]1CC[C@@H](NC(=O)c2cc(Cl)c3c(c2)-c2cncn2CCO3)CC1)C(F)(F)F [Compound 171A, 8-Chloro-N-((1s,4s)-4-(3,3,3-trifluoro-2,2-dimethylpropoxy)cyclohexyl)-5,6-dihydrobenzo[f]imidazo[1,5-d][1,4]oxazepine-10-carboxamide]
< 30 | 1 to 10 | C[C@@H]1CCC[C@H](C)[C@H]1NC(=O)c1cc(F)c2c(c1)-c1cncn1CCO2 [Compound 176A, N-(trans-2-trans-6-Dimethylcyclohexyl)-8-fluoro-5,6-dihydrobenzo[f]imidazo[1,5-d][1,4]oxazepine-10-carboxamide]
< 30 | 1 to 10 | C[C@@H]1CCC[C@H](C)[C@@H]1NC(=O)c1cc(F)c2c(c1)-c1cncn1CCO2 [Compound 178A, N-(cis-2-cis-6-Dimethylcyclohexyl)-8-fluoro-5,6-dihydrobenzo[f]imidazo[1,5-d][1,4]oxazepine-10-carboxamide]
< 30 | 1 to 10 | N-((1r,4r)-4-((1-(Trifluoromethyl)cyclopropyl)methoxy)cyclohexyl)-5,6-dihydrobenzo[f]imidazo[1,5-d][1,4]oxazepine-10-carboxamide [Compound 142A]
